The source of these data is ChEMBL document CHEMBL4680301, “Development of a novel acetyl glucose-modified gefitinib derivative to enhance the radiosensitizing effect” (Bioorg Med Chem, 2021).

Series [1] relates to A-431. In words: Cytotoxicity against human A431 cells measured after 24 hrs by WST-1 assay. Type of series: functional, cell-based. The following applies: A-431, 24 h.
The nature of series [2]: Drug metabolism in human A431 cells assessed as 2-((4-((3-Chloro-4-fluorophenyl)amino)-6-(3-morpholinopropoxy)quinazolin-7-yl)oxy)ethan-1-ol metabolite formation at 3 uM measured after 24 hrs by HPLC analysis. The series is classed as ADME, cell-based. As to conditions: a-431, 24 h.
The test system of series [3] is A-431. In words: Radio-sensitinzing effect in human A431 cells assessed as reduction in surviving fraction incubated at 1 uM for 24 hrs with X-ray followed by measured after 7 days by Giemsa staining relative to control. Type of series: functional. As to conditions: time 8 day.
The test system of series [4] is HepG2. Kind of series: Inhibition of GLUT in human HepG2 cells assessed as inhibition of 2-NBDG uptake incubated for 20 mins by fluorescence microplate reader. Type of series: cell-based. The following applies: dose 10-30 µM.
The subject of series [5] is HepG2. In words: Inhibition of GLUT in human HepG2 cells assessed as inhibition of 2-NBDG uptake at 10 uM incubated for 20 mins by fluorescence microplate reader. The series is classed as cell-based.
A short description of series [6]: Drug metabolism in human A431 cells assessed as 4-((4-((3-Chloro-4-fluorophenyl)amino)-6-(3-morpholinopropoxy)quinazolin-7-yl)oxy)butan-1-ol metabolite formation at 3 uM measured after 24 hrs by HPLC analysis. Type of series: ADME, cell-based. As to conditions: a-431, 24 h.
The nature of series [7]: Drug metabolism in human A431 cells assessed as 3-((4-((3-Chloro-4-fluorophenyl)amino)-6-(3-morpholinopropoxy)quinazolin-7-yl)oxy)propan-1-ol metabolite formation at 3 uM measured after 24 hrs by HPLC analysis. The series is classed as ADME, cell-based. The following applies: a-431, 24 h.

Calls of active or inactive are those of the source. The calls are words filed in the database; no cut-off is given here.

In general, IC50 refers to the point on the concentration scale where inhibition reaches its midpoint. `CC(=O)OC[C@H]1OC(OCCOc2cc3ncnc(Nc4ccc(F)c(Cl)c4)c3cc2OCCCN2CCOCC2)[C@H](OC(C)=O)[C@@H](OC(C)=O)[C@@H]1OC(C)=O` (stereo partly specified) showed a half-maximal inhibitory concentration (IC50) in the series on A-431 [1] of 34.3 µM. In addition, the Drug metabolism entry in series [2] is “Metabolite_Detected”. In addition, the “fold change (FC)” value with A-431 [3] is listed as 0.175. Also, the inhibition entry with HepG2 [4] was “Dose-dependent effect”.
For `C=C1[C@@H](C)[C@H]2[C@H](Cc3ccccc3)NC(=O)[C@]23OC(=O)/C=C/[C@H](O)CCC[C@@H](C)C/C=C/[C@H]3[C@@H]1O`, the inhibition result in the series with HepG2 [5] is “Active”.
Regarding `CC(=O)OC[C@H]1OC(OCCCCOc2cc3ncnc(Nc4ccc(F)c(Cl)c4)c3cc2OCCCN2CCOCC2)[C@H](OC(C)=O)[C@@H](OC(C)=O)[C@@H]1OC(C)=O` (stereo partly specified), half-maximal inhibition in the series with A-431 [1] (IC50) required 39.4 µM. The “fold change (FC)” value with A-431 [3] was determined as 0.202. In addition, in series [6], the Drug metabolism result is given as “Metabolite_Detected”.
Turning to `CC(=O)OC[C@H]1OC(OCCCOc2cc3ncnc(Nc4ccc(F)c(Cl)c4)c3cc2OCCCN2CCOCC2)[C@H](OC(C)=O)[C@@H](OC(C)=O)[C@@H]1OC(C)=O` (stereo partly specified), the IC50 in the series with A-431 [1] came out at 36.8 µM. In addition, the “fold change (FC)” value in the series with A-431 [3] was 0.216. Moreover, the Drug metabolism result in series [7] is recorded as “Metabolite_Detected”.
